Data on 8 compounds can be found in patent US20090088412A1, “COMPOSITION FOR TREATING CANCER CELLS AND PREPARATION METHOD THEREOF” (KAOHSIUNG MEDICAL UNIVERSITY, priority 2007, published 2009).

Values after ≈ are worked out from the molar mass of the structure shown.

In one experiment the test system is Hep G2. In words: MTT cytotoxicity test, Hep G2. It counts as cell-based, human. The following applies: 72 hours; for IC50 Hep G2: liver cancer cell line. How it is done: (§1) The bioactivities of the 25 new withanolide compounds of the present invention are further studied. The bioactivities are measured by examining cytotoxicity tests with 5 human cancer cell lines, including MCF-7 and MDA-MB-231 (which are the breast cancer cell lines), Hep G2 and Hep 3B (which are the liver cancer cell line), and A549 (which is lung cancer cell line). In addition, a normal human lung cell line (MRC-5) is served as the control group. All human cancer cell lines come from the American Type Culture Collection. The respective cell lines are cultured in RPMI-1640 medium with 10% (v/v) fetal calf serum, 100 U/ml penicillin and 100 µg/ml streptomycin, and incubated at 37° C. in 5% CO2 atmosphere.
(§2) In the present invention, the cytotoxicity tests are performed with MTT (3-(4,5-dimethyl-thiazol-2-yl)-2,5-diphenyl tetrazolium bromide) method. The five cancer cell lines and the normal cell line (MRC-5) are firstly incubated in a 96-well culture dish with concentrations of 5,000˜10,000 cells/well. In Day 2, the respective incubated cells are added with the withanolide compounds of the present invention and Doxorubicin and are incubated for additional 72 hours. Afterwards, the incubated cells are examined with the MTT method including steps of dissolving the incubated cells in DMSO, and determining the absorbance of each cell line to each compound by a microplate reader in 550 nm to evaluate the cytotoxicity of each compound to each cell line. […] The IC50 represents the concentration of the compound that is required for 50% inhibition of the cell growth, and Doxorubicin serves as the positive control group.
In general terms: Formazan colour is commonly taken as a measure of viable cells.

In another experiment the test system is Hep 3B. In words: MTT cytotoxicity test, Hep 3B. It counts as cell-based, human. The conditions noted are these: liver cancer cell line, 72 hours. On the procedure: as §1, §2
The subject of the next experiment is MCF-7. In words: MTT cytotoxicity test, MCF-7. It counts as cell-based, human. The following applies: 72 hours; for IC50 MCF-7: breast cancer cell line. How it is done: as §1, §2
A further experiment concerns A-549. In words: MTT cytotoxicity test, A-549. The format is cell-based, human. The conditions noted are these: 72 hours; for IC50 A-549: lung cancer cell line. How it is done: as §1, §2
In a further experiment the test system is MDA-MB-231. In words: MTT cytotoxicity test, MDA-MB-231. It counts as cell-based, human. The conditions noted are these: 72 hours; for IC50 MDA-MB-231: breast cancer cell line. On the procedure:
as §1, §2

In the next experiment the test system is MRC-5. In words: MTT cytotoxicity test, normal lung cell line MRC-5. It counts as cell-based. The conditions noted are these: 72 hours; for IC50 MRC-5: normal human lung cell line. How it is done:
as §1, §2

For the compound `CC1=C(C)C(=O)O[C@@H]([C@@H](C)[C@@]2(O)CC[C@H]3[C@@H]4C[C@H]5O[C@]56[C@@H](O)C=CC(=O)[C@]6(C)[C@H]4CC[C@@]32C)C1` [Compound 14, Tubocapsanolide F], in the experiment on Hep G2, the “IC50 Hep G2” value stood at 0.64 µg/mL (≈ 1.36 µM). Further, the “IC50 Hep 3B” value in the experiment on Hep 3B was 0.80 µg/mL (≈ 1.7 µM). Besides, the “IC50 MCF-7” value with MCF-7 stood at 1.98 µg/mL (≈ 4.21 µM). Moreover, in the experiment on A-549, the “IC50 A-549” value turned out to be 0.88 µg/mL (≈ 1.87 µM). Moreover, the “IC50 MDA-MB-231” value in the experiment on MDA-MB-231 stood at 0.99 µg/mL (≈ 2.1 µM). Further, in the experiment with MRC-5, the “IC50 MRC-5” value turned out to be 0.81 µg/mL (≈ 1.72 µM).

As to `COC1CC(=O)[C@]2(C)[C@H]3CC[C@@]4(C)[C@@H](CC[C@]4(O)[C@@](C)(O)[C@H]4CC(C)=C(C)C(=O)O4)[C@@H]3C[C@H]3O[C@]32[C@H]1O` (stereo partly drawn) [Compound 17, 20-Hydroxytubocapsanolide G], the “IC50 Hep G2” value in the experiment on Hep G2 amounted to 2.51 µg/mL (≈ 4.84 µM). In addition, in the experiment on Hep 3B, the “IC50 Hep 3B” value came out at 12.30 µg/mL (≈ 23.7 µM). For the same compound, the “IC50 MCF-7” value with MCF-7 came to 17.25 µg/mL (≈ 33.3 µM). The “IC50 A-549” value in the experiment on A-549 came out at 2.67 µg/mL (≈ 5.15 µM). Further, in the experiment with MDA-MB-231, the “IC50 MDA-MB-231” value was 4.44 µg/mL (≈ 8.56 µM). Also, the “IC50 MRC-5” value in the experiment on MRC-5 amounted to 7.20 µg/mL (≈ 13.9 µM).

In the case of `COC1CC(=O)[C@]2(C)[C@H]3CC[C@]4(C)C([C@@](C)(O)[C@H]5CC(C)=C(C)C(=O)O5)=CC[C@H]4[C@@H]3C[C@H]3O[C@]32[C@H]1O` (stereo partly drawn) [Compound 18, Tubocapsanolide H], in the experiment with Hep G2, the “IC50 Hep G2” value was 3.67 µg/mL (≈ 7.33 µM). Moreover, in the experiment with Hep 3B, the “IC50 Hep 3B” value amounted to 2.65 µg/mL (≈ 5.29 µM). In the experiment with MCF-7, the “IC50 MCF-7” value was determined as 9.27 µg/mL (≈ 18.5 µM). Also, the “IC50 A-549” value in the experiment on A-549 worked out at 7.50 µg/mL (≈ 15 µM). Further, the “IC50 MDA-MB-231” value in the experiment on MDA-MB-231 stood at 4.82 µg/mL (≈ 9.63 µM). Also, in the experiment with MRC-5, the “IC50 MRC-5” value stood at 15.23 µg/mL (≈ 30.4 µM).

Turning to `C[C@@]12CC([C@@]3(O)CC[C@H]4[C@@H]5C[C@H]6O[C@]67[C@@H](O)C=CC(=O)[C@]7(C)[C@H]5CC[C@@]43C)[C@@H](C1)OC(=O)[C@]2(C)O` (stereo partly drawn) [Compound 19, Anomanolide A], the “IC50 Hep G2” value with Hep G2 was determined as 3.11 µg/mL (≈ 6.39 µM). In addition, the “IC50 Hep 3B” value in the experiment with Hep 3B worked out at 3.63 µg/mL (≈ 7.46 µM). Further, the “IC50 MCF-7” value in the experiment with MCF-7 turned out to be 2.31 µg/mL (≈ 4.75 µM). In addition, the “IC50 A-549” value in the experiment on A-549 was 1.01 µg/mL (≈ 2.08 µM). Also, in the experiment on MDA-MB-231, the “IC50 MDA-MB-231” value was found to be 1.37 µg/mL (≈ 2.82 µM). Also, the “IC50 MRC-5” value with MRC-5 was 1.91 µg/mL (≈ 3.93 µM).

As to `C[C@@]12CC([C@@]3(O)CC[C@H]4[C@@H]5C[C@H](O)[C@]6(O)[C@@H](O)C=CC(=O)[C@]6(C)[C@H]5CC[C@@]43C)[C@@H](C1)OC(=O)[C@]2(C)O` (stereo partly drawn) [Compound 20, Anomanolide B], the “IC50 Hep G2” value in the experiment with Hep G2 amounted to 0.97 µg/mL (≈ 1.92 µM). Besides, the “IC50 Hep 3B” value in the experiment on Hep 3B was 3.17 µg/mL (≈ 6.28 µM). Further, the “IC50 MCF-7” value in the experiment with MCF-7 stood at 4.84 µg/mL (≈ 9.59 µM). In the experiment on A-549, the “IC50 A-549” value was 1.49 µg/mL (≈ 2.95 µM). The “IC50 MDA-MB-231” value in the experiment with MDA-MB-231 was 0.70 µg/mL (≈ 1.39 µM). Also, in the experiment on MRC-5, the “IC50 MRC-5” value came to 0.20 µg/mL (≈ 0.396 µM).

A word on the IC50: it is the point on the concentration scale where inhibition reaches its midpoint. A low value points to higher potency. For `COc1cccc2c1C(=O)c1c(O)c3c(c(O)c1C2=O)C[C@@](O)(C(=O)CO)C[C@@H]3O[C@H]1C[C@H](N)[C@H](O)[C@H](C)O1` [doxorubicin, reference compound], the 50% inhibitory concentration (IC50) stood at 0.46 µg/mL (≈ 0.846 µM) with Hep G2 (Homo sapiens, HepG2, liver cancer cell line); 0.45 µg/mL (≈ 0.828 µM) in the experiment on Hep 3B (Homo sapiens, Hep3B); 0.34 µg/mL (≈ 0.626 µM) in the experiment with MCF-7 (Homo sapiens, MCF7, breast cancer cell line); 0.42 µg/mL (≈ 0.773 µM) in the experiment on A-549 (Homo sapiens, A549, lung cancer cell line); 0.19 µg/mL (≈ 0.35 µM) with MDA-MB-231 (Homo sapiens, MDA-MB-231, breast cancer cell line); 0.77 µg/mL (≈ 1.42 µM) in the experiment with MRC-5 (MRC5, normal human lung cell line).

Regarding `CC1=C(CO)C(=O)O[C@@H]([C@@H](C)[C@H]2CC[C@H]3[C@@H]4C[C@H]5O[C@]56[C@@H](O)C=CC(=O)[C@]6(C)[C@H]4CC[C@]23C)C1` [withaferin A, reference compound], the “IC50 Hep G2” value in the experiment on Hep G2 was 0.06 µg/mL (≈ 0.127 µM). Moreover, the “IC50 Hep 3B” value in the experiment on Hep 3B was 0.06 µg/mL (≈ 0.127 µM). Also, the “IC50 MCF-7” value with MCF-7 was 0.05 µg/mL (≈ 0.106 µM). In the experiment with A-549, the “IC50 A-549” value turned out to be 0.02 µg/mL (≈ 0.0425 µM). In the experiment on MDA-MB-231, the “IC50 MDA-MB-231” value turned out to be 0.02 µg/mL (≈ 0.0425 µM). Also, the “IC50 MRC-5” value in the experiment with MRC-5 was determined as 0.07 µg/mL (≈ 0.149 µM).

Tubocapsenolide D [Compound 4]: the “IC50 Hep G2” value in the experiment with Hep G2 came to 4.57 µg/mL. The “IC50 Hep 3B” value with Hep 3B was 2.30 µg/mL. Moreover, the “IC50 MCF-7” value in the experiment with MCF-7 amounted to 6.77 µg/mL. For the same compound, the “IC50 A-549” value in the experiment on A-549 stood at 4.24 µg/mL. The “IC50 MDA-MB-231” value with MDA-MB-231 was 6.55 µg/mL. Moreover, the “IC50 MRC-5” value in the experiment on MRC-5 amounted to 4.24 µg/mL.
